Experimental data published in EPA's CvTdb concentration-time database.

Experiments:
Assay in all cases: concentration in plasma after dosing
[1] = tested on: Rat; conditions: 20 min; dosed: Oxymetholone; 20 mg/kg; iv; Male; F344/N
[2] = tested on: Rat; conditions: 2 h; dosed: Oxymetholone; 20 mg/kg; iv; Male; F344/N
[3] = tested on: Rat; conditions: 2 h; dosed: Oxymetholone; 30 mg/kg; oral; Male; F344/N
[4] = tested on: Rat; conditions: 1 h; dosed: Oxymetholone; 120 mg/kg; oral; Male; F344/N
[5] = tested on: Rat; conditions: 40 min; dosed: Oxymetholone; 120 mg/kg; oral; Male; F344/N
[6] = tested on: Rat; conditions: 10 min; dosed: Oxymetholone; 20 mg/kg; iv; Male; F344/N
[7] = tested on: Rat; conditions: 1 h; dosed: Oxymetholone; 20 mg/kg; iv; Male; F344/N
[8] = tested on: Rat; conditions: 4 h; dosed: Oxymetholone; 20 mg/kg; iv; Male; F344/N
[9] = tested on: Rat; conditions: 2 h; dosed: Oxymetholone; 120 mg/kg; oral; Male; F344/N
[10] = tested on: Rat; conditions: 20 min; dosed: Oxymetholone; 20 mg/kg; iv; Male; F344/N; remark: listed apart in the source
[11] = tested on: Rat; conditions: 6 h; dosed: Oxymetholone; 120 mg/kg; oral; Male; F344/N
[12] = tested on: Rat; conditions: 40 min; dosed: Oxymetholone; 30 mg/kg; oral; Male; F344/N
[13] = tested on: Rat; conditions: 2 h; dosed: Oxymetholone; 30 mg/kg; oral; Female; F344/N
[14] = tested on: Rat; conditions: 10 min; dosed: Oxymetholone; 120 mg/kg; oral; Male; F344/N
[15] = tested on: Rat; conditions: 2 h; dosed: Oxymetholone; 120 mg/kg; oral; Female; F344/N
[16] = tested on: Rat; conditions: 1 h; dosed: Oxymetholone; 120 mg/kg; oral; Male; F344/N; remark: listed apart in the source
[17] = tested on: Rat; conditions: 8 h; dosed: Oxymetholone; 120 mg/kg; oral; Male; F344/N
[18] = tested on: Rat; conditions: 0.5 h; dosed: Oxymetholone; 20 mg/kg; iv; Male; F344/N
[19] = tested on: Rat; conditions: 5 h; dosed: Oxymetholone; 120 mg/kg; oral; Male; F344/N
[20] = tested on: Rat; conditions: 2 h; dosed: Oxymetholone; 20 mg/kg; iv; Male; F344/N; remark: listed apart in the source
[21] = tested on: Rat; conditions: 40 min; dosed: Oxymetholone; 30 mg/kg; oral; Male; F344/N; remark: listed apart in the source
[22] = tested on: Rat; conditions: 3 h; dosed: Oxymetholone; 120 mg/kg; oral; Male; F344/N
[23] = tested on: Rat; conditions: 2 h; dosed: Oxymetholone; 120 mg/kg; oral; Male; F344/N; remark: listed apart in the source
[24] = tested on: Rat; conditions: 2 h; dosed: Oxymetholone; 120 mg/kg; oral; Female; F344/N; remark: listed apart in the source
[25] = tested on: Rat; conditions: 40 min; dosed: Oxymetholone; 120 mg/kg; oral; Male; F344/N; remark: listed apart in the source
[26] = tested on: Rat; conditions: 2 h; dosed: Oxymetholone; 30 mg/kg; oral; Female; F344/N; remark: listed apart in the source
[27] = tested on: Rat; conditions: 2 h; dosed: Oxymetholone; 30 mg/kg; oral; Male; F344/N; remark: listed apart in the source
[28] = tested on: Rat; conditions: 4 h; dosed: Oxymetholone; 120 mg/kg; oral; Male; F344/N
[29] = tested on: Rat; conditions: 10 min; dosed: Oxymetholone; 20 mg/kg; iv; Male; F344/N; remark: listed apart in the source
[30] = tested on: Rat; conditions: 1 h; dosed: Oxymetholone; 20 mg/kg; iv; Male; F344/N; remark: listed apart in the source
[31] = tested on: Rat; conditions: 5 min; dosed: Oxymetholone; 20 mg/kg; iv; Male; F344/N
[32] = tested on: Rat; conditions: 0.5 h; dosed: Oxymetholone; 20 mg/kg; iv; Male; F344/N; remark: listed apart in the source
[33] = tested on: Rat; conditions: 5 min; dosed: Oxymetholone; 20 mg/kg; iv; Male; F344/N; remark: listed apart in the source
[34] = tested on: Rat; conditions: 3 h; dosed: Oxymetholone; 120 mg/kg; oral; Male; F344/N; remark: listed apart in the source
[35] = tested on: Rat; conditions: 10 min; dosed: Oxymetholone; 120 mg/kg; oral; Male; F344/N; remark: listed apart in the source
[36] = tested on: Rat; conditions: dosed: Oxymetholone, F344/N
[37] = tested on: Rat; conditions: 12 h; dosed: Oxymetholone; 120 mg/kg; oral; Male; F344/N
[38] = tested on: Rat; conditions: 8 h; dosed: Oxymetholone; 120 mg/kg; oral; Male; F344/N; remark: listed apart in the source
[39] = tested on: Rat; conditions: 4 h; dosed: Oxymetholone; 30 mg/kg; oral; Male; F344/N
[40] = tested on: Rat; conditions: 4 h; dosed: Oxymetholone; 30 mg/kg; oral; Male; F344/N; remark: listed apart in the source

C[C@]12C/C(=C/O)C(=O)C[C@@H]1CC[C@@H]1[C@@H]2CC[C@@]2(C)[C@H]1CC[C@]2(C)O [Oxymetholone]
Conditions | concentration in plasma [ng/mL]
[1] | 3010
[2] | 846
[3] | 875
[4] | 739
[5] | 733
[6] | 8040
[7] | 881
[8] | 376
[9] | 1330
[10] | 2210
[11] | 462
[12] | 641
[13] | 276
[14] | 319
[15] | 918
[16] | 952
[17] | 339
[18] | 1720
[19] | 600
[20] | 914
[21] | 629
[22] | 1070
[23] | 1610
[24] | 1020
[25] | 675
[26] | 231
[27] | 711
[28] | 910
[29] | 6510
[30] | 1490
[31] | 20300
[32] | 2190
[33] | 14400
[34] | 1080
[35] | 666
[37] | 255
[38] | 203
[39] | 316
[40] | 466

concentration in plasma [ng/mL], [36]
Conditions | Female | Male
0.5 h, 20 mg/kg, iv | – | 2070
1 h, 20 mg/kg, iv | – | 1210
1 h, 120 mg/kg, oral | – | 999
1.5 h, 120 mg/kg, oral | – | 616
2 h, 20 mg/kg, iv | – | 619
2 h, 30 mg/kg, oral | 266 | 875
2 h, 120 mg/kg, oral | 687 | 1130
3 h, 120 mg/kg, oral | – | 925
4 h, 20 mg/kg, iv | – | 496
4 h, 30 mg/kg, oral | – | 427
4 h, 120 mg/kg, oral | – | 977
5 h, 120 mg/kg, oral | – | 527
5 min, 20 mg/kg, iv | – | 20600
6 h, 120 mg/kg, oral | – | 806
8 h, 120 mg/kg, oral | – | 428
10 min, 20 mg/kg, iv | – | 5510
10 min, 120 mg/kg, oral | – | 626
12 h, 120 mg/kg, oral | – | 208
20 min, 20 mg/kg, iv | – | 4270
20 min, 120 mg/kg, oral | – | 788
40 min, 30 mg/kg, oral | – | 564
40 min, 120 mg/kg, oral | – | 684
